Results on 13 molecules are retold here after patent publication US10759799B2, “Indazole containing macrocycles and therapeutic uses thereof” (Samumed, LLC, priority 2018, dated 2020).

As a reminder, the pEC50 is the EC50 on a negative log10 scale, so that one unit is a factor of ten. What is called IC50 is the concentration that inhibits the measured activity by half. The inhibition is the change of the read-out against control, counted positive when it falls.

For assay [1], the system named is primary human mesenchymal stem cells (hMSCs). Nature of the assay: Chondrogenesis induction in hMSCs (nodule count, relative to TGF-β3). The note with it: 6 days; for Conc (nM) of 50% TGF-β3 activity / Max. Activity as % TGF-β3 activity: TGF-β3 10 ng/mL positive control; for Conc (nM) of Max. activity: chondrogenic nodules. It counts as cell-based. From the text: Representative compounds were screened using primary human mesenchymal stem cells (hMSCs) to determine their ability to induce chondrogenesis (process by which cartilage is developed).
Human Mesenchymal Stem Cell Culture: Primary human mesenchymal stem cells (hMSCs) were purchased from Lonza (Walkersville, Md.) and expanded in Mesenchymal Stem Cell Growth Media (Lonza). Cells between passage 3 and 6 were used for the experiments.
Number of nodules in each well was normalized to the average of 3 DMSO treated wells on the same plate using Excel (Microsoft Inc.). The normalized averages (fold change over DMSO) of 3 replicate wells for each compound concentration were calculated. Due to solubility limitations of some of the compounds, curve fitting was incomplete leading to inaccurate EC50 determinations.
Using TGF-β3 as a positive control, the concentration of representative compounds required to induce equivalent levels of chondrogenesis is reported. In addition, the maximum activity of each compound and the respective dose that each compound reached maximum chondrogenesis activity is reported.

In assay [2] the test system is SW480 colon carcinoma cells. Nature of the assay: Cell viability assay (CellTiter-Glo) in SW480 cells. The following applies: Homo sapiens; for pEC50: 96 h, SW480 cell viability, four days, CellTiter-Glo; for inhibition at 10 µM: SW480, read-out: percent inhibition at 10 μM. It counts as cell-based. How it is done:
Representative compounds were screened using the assay procedure to assess the effect on cell viability as described below.
SW480 colon carcinoma cells were transduced with a lentiviral vector expressing luciferase with a human Sp5 promoter consisting of a sequence of eight TCF/LEF binding sites. SW480 cells stably expressing the Sp5-Luc reporter gene and a hygromycin resistance gene were selected by treatment with 150 μg/mL of hygromycin for 7 days. These stably transduced SW480 cells were expanded in cell culture and used for all further screening activities.
For the Cell Viability Assays, the cells were plated at 2,000 cells/well in 384-well plates with a DMEM medium containing 1% fetal bovine serum, and 1% Penicillin-Streptomycin and incubated for […] at 37° C. and 5% CO2. Eight replicates of DMSO-treated cells served as controls and cells treated with compound were performed in duplicate.
After incubation, 10 μL of CellTiter-Glo (Promega) was added to each well allowed to incubate for approximately 12 minutes. This reagent “results in cell lysis and generation of a luminescent signal proportional to the amount of ATP present. The amount of ATP is directly proportional to the number of cells present in culture, in agreement with previous reports. The CellTiter-Glo Assay generates a “glow-type” luminescent signal, produced by the luciferase reaction (Promega.com)”.
In general terms: In ATP-based viability assays light output follows the ATP content of the culture.

For the next assay, the target named is recombinant GSK3β kinase (Homo sapiens (Human), UniProt P49841). Nature of the assay: GSK3β kinase assay (Ser/Thr 09 peptide Z-lyte, FRET). The following applies: 46 μM ATP, one hour at room temperature, read-out: EC50 (μM) (IC50 per method). The class given is biochemical. An excerpt: Representative compounds were screened using the assay procedure for GSK3β kinase activity as described below.
The GSK3β kinase assay is run using the Ser/Thr 09 peptide Z-lyte assay kit according to manufacturer's instructions (Life Technologies—a Division of Thermo-Fisher). This is a non-radioactive assay using fluorescence resonance energy transfer (FRET) between coumarin and fluorescein to detect kinase activity which is represented as ratio of coumarin emission/fluorescein emission.
Briefly, recombinant GSK3β kinase, ATP and Ser/Thr peptide 09 are prepared in 1× Kinase buffer to final concentrations of 0.04 μg/mL, 46 μM, and 4 μM respectively. The mixture is allowed to incubate with the representative compounds for one hour at room temperature. All reactions were performed in duplicate. Unphosphorylated (“0% Control”) and phosphorylated (“100% control”) forms of […] serve as control reactions.
After incubation, diluted Development Buffer is added to the reaction and allowed to further incubate for one hour at room temperature. The plate is read at Ex 400 Em 455 to detect the coumarin signal and Ex 400 Em 520 to measure the signal (EnVision Multilabel Plate Reader, PerkinElmer).
The Emission ratio (Em) is calculated as a ratio of the coumarin (C) emission signal (at 445 nm)/Fluorescein (F) emission signal (at 520 nm). The percent phosphorylation is then calculated using the following formula: [1−((Em ratio×F100%)−C100%)/((C0%−C100%)+(Em ratio×(F100%−F0%)))].
Dose-response curves are generated and inhibitory concentration (IC50) values are calculated using non-linear regression curve fit in the Dotmatics' Studies Software (Bishops Stortford, UK).

The test system of another assay is IL-6. Nature of the assay: IL-6 inhibition in LPS-stimulated human PBMCs (HTRF). It counts as cell-based. The following applies: PBMC; for pEC50: huPBMCs, LPS 50 ng/mL, 22 hours, IL-6 HTRF; for inhibition at 10 µM: read-out: percent inhibition at 10 μM. How it is done: Fresh Normal PB MNC (Catalog # PB001, AllCells, Alameda, Calif.) were shipped overnight at 4° C. and resuspended in Roswell Park Memorial Institute (RPMI) 1640 Medium, with GlutaMAX Supplement (Catalog #61870127, ThermoFisher Scientific, Waltham, Mass.) supplemented with 1% Penicillin-Streptomycin (Catalog #15140163, ThermoFisher Scientific, Waltham, Mass.) and 1% fetal bovine serum (FBS) (Catalog #16140089, ThermoFisher Scientific, Waltham, Mass.) assay media.
Compound Screening: Fresh normal human peripheral blood mononuclear cells (huPBMCs) were resuspended in 1% FBS-RPMI assay media with 1% Penicillin-Streptomycin 1% to a cell concentration of 1×10e6 cells/mL. […] 50 ng/mL of Lipopolysaccharides from Escherichia coli 0111:B4 (Catalog # L5293-2ML, Sigma-Aldrich, St. Louis, Mo.) was added after 2 hours and cells were incubated for another 22 hours at 37° C.-5% CO2. After 22 hour incubation, a mixture of anti-IL6 XL665 and anti-IL-6 Cryptate diluted in reconstitution buffer (Catalog #62IL6PEC, Cisbio Inc., Bedford, Mass.) was added to each well. Following incubation for 3 hours at room temperature, Homogeneous Time-Resolved Fluorescence (HTRF) was measured using the Envision (Perkin Elmer, Shelton, Conn.) at 665 nm and […]. The ratio of fluorescence at 665 nm to 620 nm was used as a readout for IL-6 quantification. All samples were processed in duplicate. Readings were normalized to DMSO treated cells and normalized activities were utilized for EC50 calculations. EC50 was determined using software generated by Dotmatics Limited (Windhill Bishops Stortford Herts, UK) using the Levenberg-Marquardt 4 parameter fitting procedure with finite different gradients.
(In general: Time-resolved FRET reads energy transfer from a long-lived donor to a nearby acceptor.)

Structures are written as SMILES. pEC50: −log10 of the molar value.

Chain of recombinant GSK3β kinase (P49841 whole entry): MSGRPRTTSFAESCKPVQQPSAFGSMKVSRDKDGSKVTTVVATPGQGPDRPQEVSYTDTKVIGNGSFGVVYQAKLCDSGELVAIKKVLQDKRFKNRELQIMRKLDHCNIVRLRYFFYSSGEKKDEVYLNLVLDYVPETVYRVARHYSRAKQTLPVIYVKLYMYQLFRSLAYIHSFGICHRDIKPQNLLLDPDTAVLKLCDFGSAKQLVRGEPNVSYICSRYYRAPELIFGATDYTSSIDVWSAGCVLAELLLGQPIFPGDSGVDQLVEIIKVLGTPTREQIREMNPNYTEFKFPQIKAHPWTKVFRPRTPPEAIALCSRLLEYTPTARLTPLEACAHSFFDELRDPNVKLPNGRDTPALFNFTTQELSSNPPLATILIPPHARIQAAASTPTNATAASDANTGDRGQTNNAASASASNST

Turning to `O=C1CCc2cccc(c2)-c2cccc3[nH]c(nc23)-c2n[nH]c3ccc(cc23)-c2cncc(c2)N1` [Compound 1], in assay [1], the “Conc (nM) of 50% TGF-β3 activity” value was 200 nM, the “Max. Activity as % TGF-β3 activity” value is 497% and the “Conc (nM) of Max. activity” value is 5000 nM. For the same molecule, the pEC50 in assay [2] was 7.03. Moreover, the IC50 at recombinant GSK3β kinase was determined as 0.007 µM. Besides, the pEC50 in the assay on IL-6 was 6.42.
As to `O=C1CCc2cccc(c2)-c2nccc3[nH]c(nc23)-c2n[nH]c3ccc(cc23)-c2cncc(c2)N1` [Compound 2, (Z)-2^1H,3^1H-5-Aza-2(4,2)-imidazo[4,5-c]pyridina-3 (3,5)-indazola-4(3,5)-pyridina-1(1,3)-benzenacyclooctaphan-6-one], the pEC50 is 7.10 in assay [2] and 5.42 in the assay with IL-6. For the same molecule, the IC50 at recombinant GSK3β kinase worked out at 0.001 µM.
On to `O=C1CCc2cccc(c2)-c2cncc3[nH]c(nc23)-c2n[nH]c3ccc(cc23)-c2cncc(c2)N1` [Compound 3, (Z)-2^3H,3^1H-5-Aza-2(7,2)-imidazo[4,5-c]pyridina-3 (3,5)-indazola-4(3,5)-pyridina-1(1,3)-benzenacyclooctaphan-6-one], for which, in assay [1], the “Conc (nM) of 50% TGF-β3 activity” value came out at 50 nM, the “Max. Activity as % TGF-β3 activity” value came to 225% and the “Conc (nM) of Max. activity” value is 100 nM. The same molecule had a negative logarithm of the EC50 (pEC50) in assay [2] of 5.56. In addition, the 50% inhibitory concentration (IC50) at recombinant GSK3β kinase amounted to 0.001 µM. Further, in the assay with IL-6, the pEC50 is under 5.00 and the inhibition at 10 µM came to 43.7%.
In assay [2], `O=C1CCc2cccc(c2)-c2cccc3[nH]c(nc23)-c2n[nH]c3ncc(cc23)-c2cncc(c2)N1` [Compound 5, (Z)-2^1H,3^1H-8-Aza-2(5,3)-pyrazolo[3,4-b]pyridina-3(2,4)-benzo[d]imidazola-1(3,5)-pyridina-4(1,3)-benzenacyclooctaphan-7-one] had a negative logarithm of the EC50 (pEC50) of 6.39. At recombinant GSK3β kinase, the IC50 was found to be 0.048 µM. Besides, in the assay with IL-6, the pEC50 was under 5.00 and the inhibition at 10 µM was determined as 9.2%.
In the same order, the values of `O=C1CCc2cccc(c2)-c2cccc3[nH]c(nc23)-c2n[nH]c3cnc(cc23)-c2cncc(c2)N1` [Compound 6, (Z)-2^1H,3^1H-8-Aza-2(5,3)-pyrazolo[3,4-c]pyridina-3(2,4)-benzo[d]imidazola-1(3,5)-pyridina-4(1,3)-benzenacyclooctaphan-7-one] are 6.85, 0.004 µM, under 5.00 and 9.5%.
In assay [2], `O=C1CCc2cccc(c2)-c2cccc3[nH]c(nc23)-c2n[nH]c3ccc(nc23)-c2cncc(c2)N1` [Compound 7, (Z)-2^1H,3^1H-8-Aza-2(5,3)-pyrazolo[4,3-b]pyridina-3 (2,4)-benzo[d]imidazola-1(3,5)-pyridina-4(1,3)-benzenacyclooctaphan-7-one] showed a negative-log EC50 (pEC50) of 6.34. Further, the IC50 on recombinant GSK3β kinase was over 10 µM. In addition, in the assay on IL-6, the negative-log EC50 (pEC50) was under 5.00 and the inhibition at 10 µM is 11.6%.
Turning to `c1cc2cc(c1)-c1cncc3[nH]c(nc13)-c1n[nH]c3ccc(cc13)-c1cncc(c1)CNC2` [Compound 8, (Z)-2^3H,3H-6-Aza-2(7,2)-imidazo[4,5-c]pyridina-3(3,5)-indazola-4(3,5)-pyridina-1(1,3)-benzenacycloheptaphane], in assay [1], the “Conc (nM) of 50% TGF-β3 activity” value is on record as 200 nM, the “Max. Activity as % TGF-β3 activity” value amounted to 558% and the “Conc (nM) of Max. activity” value turned out to be 1700 nM. This molecule also showed a pEC50 in assay [2] of 7.31. Moreover, on recombinant GSK3β kinase, the IC50 came out at 0.001 µM. The same molecule showed a pEC50 in the assay with IL-6 of 7.19.
For the molecule `c1cc2cc(c1)-c1cccc3[nH]c(nc13)-c1n[nH]c3ccc(cc13)-c1cncc(c1)CNC2` [Compound 10, (Z)-2^1H,3^1H-6-Aza-2(5,3),3(2,4)-diindazola-1(3,5)-pyridina-4(1,3)-benzenacycloheptaphane], in assay [1], the “Conc (nM) of 50% TGF-β3 activity” value was 50 nM, the “Max. Activity as % TGF-β3 activity” value is given as 607% and the “Conc (nM) of Max. activity” value is 600 nM. Also, the negative logarithm of the EC50 (pEC50) in assay [2] was 7.59. Moreover, the IC50 on recombinant GSK3β kinase turned out to be 0.004 µM. The molecule further showed a pEC50 in the assay with IL-6 of 6.87.
Consider `Cn1ncc2c1CNCc1cccc(c1)-c1cccc3[nH]c(nc13)-c1n[nH]c3ccc-2cc13` [Compound 15, (Z)-Methyl-1^1H,2^1H,3^1H-6-aza-2(5,3),3 (2,4)-diindazola-1 (4,5)-pyrazola-4(1,3)-benzenacycloheptaphane], for which the pEC50 in assay [2] is 6.93; with IL-6, 6.23. For the same molecule, the 50% inhibitory concentration (IC50) at recombinant GSK3β kinase turned out to be 0.01 µM.
In the same order, the values of `CN1Cc2cccc(c2)-c2cccc3[nH]c(nc23)-c2n[nH]c3ccc(cc23)-c2cnn(C)c2C1` [Compound 29] are 6.77, 6.62 and 0.015 µM.
As to `CN1CCCn2cc(nn2)-c2cncc3[nH]c(nc23)-c2n[nH]c3ccc(cc23)-c2cncc(c2)C1` [Compound 45, (1^4Z,2^1Z)-6-Methyl-1 ^1H,2^3H,3^1H-6-aza-2(7,2)-imidazo[4,5-c]pyridina-3(3,5)-indazola-4(3,5)-pyridina-1(4,1)-triazolacyclononaphane], in assay [2], the pEC50 was under 5.00 and the inhibition at 10 µM came to 44.1%. Besides, on recombinant GSK3β kinase, the IC50 amounted to 0.001 µM. Moreover, in the assay on IL-6, the negative-log EC50 (pEC50) is under 5.00 and the inhibition at 10 µM came to 5.9%.
Regarding `c1cc2cc(c1)-c1cccc3[nH]c(nc13)-c1n[nH]c3ccc(cc13)-c1cncc(c1)OCCC2` [Compound 57], the figures for the pEC50 (in assay [2]; in the assay with IL-6) were 6.17 and 5.52, respectively. In addition, the IC50 at recombinant GSK3β kinase was 1.87 µM.
In the case of `O=C1NC2CCC(CC2)NCc2cncc(c2)-c2ccc3[nH]nc(c3c2)-c2nc3c1cccc3[nH]2` [Compound 64, (6^1s,6^4s,Z)-1^1H,2^1H-5,7-diaza-1 (2,4),2(3,5)-dibenzo[d]imidazola-3(3,5)-pyridina-6(1,4)-cyclohexanacyclooctaphan-8-one], in assay [2], the negative logarithm of the EC50 (pEC50) is under 5.00 and the inhibition at 10 µM was 15.8%. Moreover, the concentration for half-maximal inhibition (IC50) at recombinant GSK3β kinase turned out to be 0.088 µM. Further, in the assay on IL-6, the negative logarithm of the EC50 (pEC50) was under 5.00 and the inhibition at 10 µM came out at 12.7%.
